According to US8097637B2, “Benzoyl-piperidine derivatives as dual modulators of the 5-HT2A and D3 receptors” (Hoffmann-La Roche Inc., priority 2007, dated 2012):

How the values were obtained:
[1] = target: T1, human D3 dopamine receptor (Homo sapiens, UniProt P35462); test: Radioligand binding ([3H]-spiperone) to cloned human D3 receptor, HEK-293 EBNA cell membranes; details: 0.5 nM [3H]-spiperone, 1 h at RT, Cheng-Prusoff
T1 construct: expressed in transfected cells; host or cells: HEK-293 EBNA cells, transient transfection; membrane preparation
Method: The ability of the compounds to bind to the 5-HT2A, D3 and D2 receptors was determined using radioligand binding to cloned receptors selectively expressed in HEK-293 EBNA cells.
(§1) Membrane Preparation for Human D2, Human D3 and Human 5-HT2A Receptors
(§2) HEK-293 EBNA cells were transiently transfected with expression plasmids encoding for the human D2 or D3 dopamine- or for the human 5-HT2A serotonin receptor, respectively. The cells were harvested 48 h post-transfection, washed three times with cold PBS and stored at −80° C. prior to use. The pellet was suspended in cold 50 mM Tris-HCl buffer containing 10 mM EDTA (pH 7.4) and homogenized with a Polytron (Kinematica AG, Basel, Switzerland) for 20-30 sec at 12.000 rpm. After centrifugation at 48.000×g for 30 min at 4° C., the pellet was resuspended in cold 10 mM Tris-HCl buffer containing 0.1 mM EDTA (pH 7.4), homogenized, and centrifuged as above. This pellet was further resuspended in a smaller volume of ice cold 10 mM Tris-HCl buffer containing 0.1 mM EDTA (pH 7.4) and homogenized with a Polytron for 20-30 sec at 12.000 rpm. The protein content of this homogenate was determined with the Bio-Rad (Bradford) Protein Assay (Biorad Laboratories GmbH, München, Germany) according to the instructions of the manufacturer using gamma globulin as the standard. This homogenate was stored at −80° C. in aliquots and thawed immediately prior to use.
(§3) Radioligand Binding Assay Conditions
(§4) Aliquots of membrane preparations were thawed at RT, resuspended in assay buffer (D2, D3: 50 mM Tris-HCl, 120 mM NaCl, 5 mM MgCl2, 1 mM EDTA, 5 mM KCl, 1.5 mM CaCl2, pH=7.4; 5-HT2A: 50 mM Tris-HCl, 10 mM MgCl2, 1 mM EGTA, pH=7.4), homogenized with a Polytron for 20-30 sec at 12.000 rpm and adjusted to a final concentration of approximately 7.5 μg protein/well (D2, D3) and 15 μg protein/well (5-HT2A), respectively.
(§5) The binding affinity (Ki) of the compounds was determined using radioligand binding. Membranes were incubated in a total volume of 200 μl with a fixed concentration of radioligand (final concentration approximately 0.7 nM [^3H]-spiperone for D2, 0.5 nM [^3H]-spiperone for D3, and 1.1 nM [^3H]-ketanserin for 5-HT2A) and ten concentrations of test compound in ranging between 10 μM-0.1 nM for 1 h at RT. At the end of the incubation, the reaction mixtures were filtered on to unifilter 96-well white microplates with bonded GF/C filters (Packard BioScience, Zürich, Switzerland; preincubated for 1 h in 0.1% polyethylenimine (PEI) in assay buffer) with a Filtermate 196 harvester (Packard BioScience) and washed 3 times with cold assay buffer. The nonspecific binding was determined with equally composed reaction mixtures in the presence of 10 μM unlabeled spiperone. Per well 45 μl of Microscint 40 (Perkin Elmer, Schwerzenbach, Switzerland) was added, plates for sealed, shaken for 20 min and counted for 3 min on a Topcount Microplate Scintillation Counter (Canberra Packard SA, Zürich, Switzerland) with quenching correction.
(§6) The CPM value for each duplicate of a concentration of competing compound was averaged (yl), then the % specific binding was calculated according to the equation (((yl-non-specific)/(total binding-non-specific))×100). Graphs were plotted with the % specific binding using XLfit, a curve fitting program that iteratively plots the data using Levenburg Marquardt algorithm. The single site competition analysis equation used was y=A+((B−A)/(1+((x/C)^D))), where y is the % specific binding, A is the minimum y, B is the maximum y, C is the IC50, x is the log10 of the concentration of the competing compound and D is the slope of the curve (the Hill Coefficient). […] The affinity constant (Ki) was calculated using the Cheng-Prusoff equation Ki=(IC50/1+([L]/Kd), where [L] is the concentration of radioligand and Kd is the dissociation constant of the radioligand at the receptor as determined by the saturation isotherm.

[2] = target: T2, human 5-HT2A serotonin receptor (Homo sapiens, UniProt P28223); test: Radioligand binding ([3H]-ketanserin) to cloned human 5-HT2A receptor, HEK-293 EBNA cell membranes; details: 1.1 nM [3H]-ketanserin, 1 h at RT, Cheng-Prusoff
T2 construct: expressed in transfected cells; host or cells: HEK-293 EBNA cells, transient transfection; membrane preparation
Method: as §1
as §2, with “The” for “HEK-293 EBNA cells were transiently transfected with expression plasmids encoding for the human D2 or D3 dopamine- or for the human 5-HT2A serotonin receptor, respectively. The”
as §3, §4
The binding affinity (Ki) of the compounds was determined using radioligand binding. […] The nonspecific binding was determined with equally composed reaction mixtures in the presence of 10 μM unlabeled spiperone. Per well 45 μl of Microscint 40 (Perkin Elmer, Schwerzenbach, Switzerland) was added, plates for sealed, shaken for 20 min and counted for 3 min on a Topcount Microplate Scintillation Counter (Canberra Packard SA, Zürich, Switzerland) with quenching correction.
as §6

[3] = target: T3, human D2 dopamine receptor (Homo sapiens, UniProt P14416); test: Radioligand binding ([3H]-spiperone) to cloned human D2 receptor, HEK-293 EBNA cell membranes; details: 0.7 nM [3H]-spiperone, 1 h at RT, Cheng-Prusoff
T3 construct: expressed in transfected cells; host or cells: HEK-293 EBNA cells, transient transfection; membrane preparation
Method: as §1, §2, §3, §4, §5, §6

T2 sequence (P28223 whole entry): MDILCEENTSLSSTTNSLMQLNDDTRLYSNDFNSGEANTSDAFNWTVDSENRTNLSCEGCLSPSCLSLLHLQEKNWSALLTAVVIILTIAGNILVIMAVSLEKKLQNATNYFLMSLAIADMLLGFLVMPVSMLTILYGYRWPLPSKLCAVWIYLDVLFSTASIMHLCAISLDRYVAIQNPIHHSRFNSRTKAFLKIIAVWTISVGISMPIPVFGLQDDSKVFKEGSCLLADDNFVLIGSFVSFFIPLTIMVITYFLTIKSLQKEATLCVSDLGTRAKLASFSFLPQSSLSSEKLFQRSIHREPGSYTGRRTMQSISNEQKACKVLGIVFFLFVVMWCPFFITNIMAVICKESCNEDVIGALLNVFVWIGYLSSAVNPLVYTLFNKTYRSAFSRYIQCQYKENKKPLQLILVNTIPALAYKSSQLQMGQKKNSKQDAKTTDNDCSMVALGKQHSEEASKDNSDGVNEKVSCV
T1 sequence (P35462 whole entry): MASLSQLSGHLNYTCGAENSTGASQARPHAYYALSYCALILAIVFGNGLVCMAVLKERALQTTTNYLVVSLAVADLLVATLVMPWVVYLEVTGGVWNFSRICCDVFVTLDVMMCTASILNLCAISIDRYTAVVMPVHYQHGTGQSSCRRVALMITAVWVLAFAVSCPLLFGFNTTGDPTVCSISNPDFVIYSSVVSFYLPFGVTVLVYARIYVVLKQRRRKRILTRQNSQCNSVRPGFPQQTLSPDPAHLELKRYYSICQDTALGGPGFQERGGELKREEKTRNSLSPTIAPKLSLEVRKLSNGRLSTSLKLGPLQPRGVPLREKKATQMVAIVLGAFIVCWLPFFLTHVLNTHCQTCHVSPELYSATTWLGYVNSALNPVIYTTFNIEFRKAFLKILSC
T3 sequence (P14416 whole entry): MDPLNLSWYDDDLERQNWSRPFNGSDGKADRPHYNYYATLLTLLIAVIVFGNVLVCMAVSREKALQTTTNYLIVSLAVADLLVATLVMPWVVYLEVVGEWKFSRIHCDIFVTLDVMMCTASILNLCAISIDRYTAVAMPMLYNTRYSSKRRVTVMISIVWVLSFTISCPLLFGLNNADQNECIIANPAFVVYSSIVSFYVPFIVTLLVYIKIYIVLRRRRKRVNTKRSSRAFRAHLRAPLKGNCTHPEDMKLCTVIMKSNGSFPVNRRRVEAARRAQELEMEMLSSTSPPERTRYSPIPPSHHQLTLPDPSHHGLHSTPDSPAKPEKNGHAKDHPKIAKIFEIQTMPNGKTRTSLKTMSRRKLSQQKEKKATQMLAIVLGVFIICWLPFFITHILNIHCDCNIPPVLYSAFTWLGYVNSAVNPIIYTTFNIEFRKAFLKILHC

| SMILES | Ki [1] [nM] | Ki [2] [nM] | Ki [3] [nM] |
| --- | --- | --- | --- |
| O=C(CC1CCC(O)CC1)N[C@H]1CC[C@H](CCN2CCC(C(=O)c3ccc(F)cc3)CC2)CC1 (mixture of isomers) [Example 1, N-trans (4-{2-[4-(4-Fluoro-benzoyl)-piperidin-1-yl]-ethyl}-cyclohexyl)-2-cis/trans (4-hydroxy-cyclohexyl)-acetamide] | 43 | 13 | 1490 |
| O=C(CC1CC(CO)C1)N[C@H]1CC[C@H](CCN2CCC(C(=O)c3ccc(F)cc3)CC2)CC1 (mixture of isomers) [Example 19, N-trans (4-{2-[4-(4-Fluoro-benzoyl)-piperidin-1-yl]-ethyl}-cyclohexyl)-2-cis/trans (3-hydroxymethyl-cyclobutyl)-acetamide] | 28 | 11 | 1000 |
| CO[C@H]1CC[C@H](CC(=O)N[C@H]2CC[C@H](CCN3CCC(C(=O)c4ccc(F)cc4)CC3)CC2)C1 (racemic) [Example 8, rac-N-trans(4-{2-[4-(4-Fluoro-benzoyl)-piperidin-1-yl]-ethyl}-cyclohexyl)-2-trans (3-methoxy-cyclopentyl)-acetamide] | 23 | 16 |  |
| CO[C@@H]1CC[C@H](CC(=O)N[C@H]2CC[C@H](CCN3CCC(C(=O)c4ccc(F)cc4)CC3)CC2)C1 (racemic) [Example 9, rac-N-trans (4-{2-[4-(4-Fluoro-benzoyl)-piperidin-1-yl]-ethyl}-cyclohexyl)-2-cis (3-methoxy-cyclopentyl)-acetamide] | 42 | 6 |  |
| CO[C@@H]1CC[C@H](CC(=O)N[C@H]2CC[C@H](CCN3CCC(C(=O)c4ccc(F)cc4)CC3)CC2)C1 (single isomer, unassigned) [Example 10, N-trans (4-{2-[4-(4-Fluoro-benzoyl)-piperidin-1-yl]-ethyl}-cyclohexyl)-2-((1S,3R)-3-methoxy-cyclopentyl)-acetamide or N-trans (4-{2-[4-(4-fluoro-benzoyl)-piperidin-1-yl]-ethyl}-cyclohexyl)-2-((1R,3S)-3-methoxy-cyclopentyl)-acetamide] | 56 | 5 |  |
| CO[C@H]1CC[C@@H](CC(=O)N[C@H]2CC[C@H](CCN3CCC(C(=O)c4ccc(F)cc4)CC3)CC2)C1 (single isomer, unassigned) [Example 11, N-trans (4-{2-[4-(4-Fluoro-benzoyl)-piperidin-1-yl]-ethyl}-cyclohexyl)-2-((1R,3S)-3-methoxy-cyclopentyl)-acetamide or N-trans (4-{2-[4-(4-fluoro-benzoyl)-piperidin-1-yl]-ethyl}-cyclohexyl)-2-((1S,3R)-3-methoxy-cyclopentyl)-acetamide] | 62 | 11 |  |
| CO[C@H]1CC[C@H](CC(=O)N[C@H]2CC[C@H](CCN3CCC(C(=O)c4ccc(F)cc4)CC3)CC2)C1 (single isomer, unassigned) [Example 14, N-trans (4-{2-[4-(4-Fluoro-benzoyl)-piperidin-1-yl]-ethyl}-cyclohexyl)-2-((1S,3S)-3-methoxy-cyclopentyl)-acetamide or N-trans (4-{2-[4-(4-fluoro-benzoyl)-piperidin-1-yl]-ethyl}-cyclohexyl)-2-((1R,3R)-3-methoxy-cyclopentyl)-acetamide] | 18 | 7 |  |
| CO[C@@H]1CC[C@@H](CC(=O)N[C@H]2CC[C@H](CCN3CCC(C(=O)c4ccc(F)cc4)CC3)CC2)C1 (single isomer, unassigned) [Example 15, N-trans (4-{2-[4-(4-Fluoro-benzoyl)-piperidin-1-yl]-ethyl}-cyclohexyl)-2-((1R,3R)-3-methoxy-cyclopentyl)-acetamide or N-trans (4-{2-[4-(4-fluoro-benzoyl)-piperidin-1-yl]-ethyl}-cyclohexyl)-2-((1S,3S)-3-methoxy-cyclopentyl)-acetamide] | 34 | 16 |  |
